Marks after values point to notes of the source that are not given here.
Columns and labels:
[1] = molecular target: T1, 5-HT7 receptor (Homo sapiens, UniProt P34969); assay: Functional antagonist assay: measurement of cAMP formation; assay type: cell-based
T1 construct: expressed in transfected cells; host or cells: AV-12 cells
Procedure: For cAMP functional assays, the 5-HT7-expressing cells from above are grown in 150 cm^2 flasks and processed essentially as follows. The media is aspirated from the flasks and cells are washed with 1 mL PBS. The cells are trypsinized and resuspended in complete media. A sample of the cells is counted and the remainder is centrifuged as above for 3 min. The resulting cell pellet is resuspended in PBS at a concentration of 1×10^6 cells per mL and used directly in the cAMP assay as described.
The 5-HT7 receptor is functionally coupled to a G-protein as measured by the ability of serotonin and serotonergic drugs to stimulate cAMP production in CHO cells transfected with the 5-HT7 receptor. (Ruat, et al., Proceedings of the National Academy of Sciences (USA), 90:8547-8551, 1993.) Accordingly, functional receptor activity can be measured by measuring adenylate cyclase activity using a commercially available cell-based, homogeneous, time resolved fluorescence assay kit, as for example the kit produced by Cisbio-US, Inc. (Bedford, Mass.). Essentially, and using the protocol and reagents provided by the manufacturer, approximately 20,000 human 5-HT7 receptor-expressing AV-12 cells (as described above) are used with test compound dose concentrations in the range described for the binding assay. […] A cAMP standard curve is also run in every experiment. After the assay plates are read in an Envision™ instrument (Perkin-Elmer, Wellesley Mass.), the data is normalized to the standard curve and converted to percent inhibition for data analysis as described above for the receptor binding assay results. The Kb (nM) is calculated as a measure of the antagonist potency of the compound.

[2] = test system: adult male CF-1 mice; assay: Foot electroshock stress induced cGMP elevation model for anxiety; assay type: in vivo; details: normalized to vehicle/no stress group, mean
Description: The foot electroshock stress induced cGMP elevation model for anxiety is an established anxiety model, wherein stress from an unavoidable electroshock to the feet induces an elevation in cerebellar cGMP levels, which elevation is reduced or blocked by preadministration of anxiolytic compounds (Sethy and Oien (1991), Pharmacology Biochemistry & Behavior, vol. 39, pg. 379-382). Briefly, adult male CF-1 mice (25-30 g Harlan, Indianapolis, Ind.) are housed under a 12-hr light/dark cycle in a temperature and humidity controlled environment. Mice are habituated to the environment for at least 3 days and all studies are carried out between 9:00 AM and 12:00 noon to reduce the effects of diurnal fluctuations. Test mice are given a single intraperitoneal injection of test compound or control (vehicle is 3% DMSO, 20% emulphor stock, 10% lactic acid stock) and are sacrificed approximately 30 min. after dosing, using a beam of microwave radiation (microwave fixation system model GA5013; Gerling Applied Engineering, Modesto, Calif.) focused on the skull for 0.5 sec. at high power setting. This method preserves tissue cGMP content. After microwaving, a small piece (10-20 mg) of cerebellar cortex is quickly removed from the skull. The tissue is weighed and then homogenized in 2 ml of 1.0% perchloric acid. Tissue homogenate is kept on ice for 30 min followed by 5 min. in a boiling water bath. The homogenate is then centrifuged at 11,700 g for 20 min. 1 mL of supernatant is then acetylated with 40 μl of triethylamine and 20 μl of acetic anhydride, vortexed, and centrifuged at 13,000 g for 20 min at 4° C. Acetylated mouse cerebellum samples are stored at 4° C. pending cGMP analysis by radioimmunoassay with the cGMP ^125I Flash Plate radioimmunoassay test kit (PerkinElmer Life and Analytical Sciences, Boston, Mass.) on duplicate samples from each animal as per manufacturer's instructions.
For stressed mouse groups, 30 min. post injection, mice are subjected to a 1.0 mA foot-shock for 10 sec. in a Habitest Operant cage equipped with a modular shock floor (Habitest Modular Test System, Coulbourn Instruments, Allentown, Pa.). Mice are then sacrificed and cerebellar cortex samples are processed as described.
For each animal, cGMP levels are normalized to wet tissue weight and used to compute group averages and S.E.M. (typically 4-6 mice per group). All data are analyzed on the log scale to correct problems with heterogeneity of variance. Statistical analyses are performed using ANOVA followed by Dunnett's method to compare each treatment group to the vehicle group.

[3] = test system: Male Sprague Dawley rats; assay: L5/L6 nerve ligation model (Chung model) of persistent pain; assay type: in vivo; details: i.p.
Procedure: The L5/L6 Nerve Ligation model (Chung model) is a well established model for persistent pain, specifically neuropathic pain. Surgery is performed on male Sprague Dawley rats (Harlan, Indianapolis, Ind.), weighing 150-200 g at the time of surgery as previously described (Kim and Chung, 1992). Briefly, neuropathic injury is produced by tightly ligating the left L5 and L6 spinal nerves under gas anesthesia with a mixture of isoflurane (3% for induction and 2% for maintenance) and O2. Following surgery, development of neuropathic pain is evaluated daily by measuring mechanical sensitivity of the injured paw to von Frey filaments with incremental bending forces (0.5-15 g) as described by (Chaplan et al., 1994). […] Test drug or vehicle is administered i.p. and the mechanical threshold for paw flinching is measured at 0.5, 1, 2, 3, 4 and 6 hr. after dosing. Measurement of the mechanical threshold for paw flinching is also done prior to surgery (preoperative control). Data are expressed as the threshold force required to elicit a response (g) as means±S.E.M. (standard error of the mean).

[4] = test system: male Harlan Sprague-Dawley rats; assay: Animal model of dural plasma protein extravasation (PPE); assay type: in vivo; details: saline controls approximately 2.0, full prevention approximately 1.0
Description: The dural plasma protein extravasation model is an established model for migraine. The ability of a test compound to reduce extravasation of plasma proteins into the dura under assay conditions is considered indicative of the compound's ability to reduce or prevent the dural inflammation thought to be symptomatic of migraine. (see Johnson, K. W., et al., Neuroreport, 8 (1997) 2237-2240.)
To assay compounds for their ability to reduce or prevent dural plasma protein extravasation, male Harlan Sprague-Dawley rats (250-350 g) are anesthetized with sodium pentobarbital (65 mg/kg, i.p.) and placed in a stereotaxic frame (David Kopf Instruments) with the incisor bar set at −2.5 mm. Following a midline sagital scalp incision, 2 pairs of bilateral holes are drilled through the skull (3.2 mm posterially, 1.8 and 3.8 mm laterally, all coordinates referenced to bregma). […]
The amount of FITC-BSA for each sample is quantified with a fluorescence microscope (Zeiss) equipped with a grating monochromator, a spectrophotometer, and a computer driven stage. Fluorescence measurements are taken at 25 points in a 5×5 grid in 500 μm steps on each dural sample with an excitation wavelength of approximately 490 nm and emission intensity measured at approximately 535 nm. The mean and standard deviation of the 25 measurements are determined. […]

[5] = test system: Male Sprague Dawley rats; assay: Formalin model of persistent pain; assay type: in vivo; details: formalin into hind paw
Procedure: The “formalin model” of persistent pain, particularly for inflammatory pain and neuropathic pain, is well known and can be used to test compounds for pain blocking and/or analgesic activity. (see Shibata M. et al., Pain (1989) 38: 347-352; and Tjolsen A. et al., Pain (1992) 51:5-17.)
Male Sprague Dawley rats (Harlan Labs, Indianapolis, Ind.) weighing between 200-250 g are maintained at constant temperature (21-23° C.) and light (12 hr. light/12 hr. dark), with free access to food and water for 7 days prior to testing. All testing is conducted during the light cycle after fasting over night and with the testing room temperature maintained at constant temperature (21-23° C.). […]
The animals are administered either vehicle or test compound and individually placed in holding cylinders. […] The cylinders are then placed on the load cells of the detection system and the response monitored continuously for 60 min. in 1-second bins (i.e. collections periods). As previously described by Jett and Michelson, the formalin-induced movements, “events,” detected by the system include licking and flinching the affected paw. […]
Data are evaluated by one-way analysis of variance (ANOVA) and the appropriate contrasts analyzed by the Dunnett ‘t’ test for 2-sided comparisons using JMP statistical analysis program (v5.1.1 SAS Institute Inc., Cary, N.C.). […]

T1 sequence (P34969 whole entry): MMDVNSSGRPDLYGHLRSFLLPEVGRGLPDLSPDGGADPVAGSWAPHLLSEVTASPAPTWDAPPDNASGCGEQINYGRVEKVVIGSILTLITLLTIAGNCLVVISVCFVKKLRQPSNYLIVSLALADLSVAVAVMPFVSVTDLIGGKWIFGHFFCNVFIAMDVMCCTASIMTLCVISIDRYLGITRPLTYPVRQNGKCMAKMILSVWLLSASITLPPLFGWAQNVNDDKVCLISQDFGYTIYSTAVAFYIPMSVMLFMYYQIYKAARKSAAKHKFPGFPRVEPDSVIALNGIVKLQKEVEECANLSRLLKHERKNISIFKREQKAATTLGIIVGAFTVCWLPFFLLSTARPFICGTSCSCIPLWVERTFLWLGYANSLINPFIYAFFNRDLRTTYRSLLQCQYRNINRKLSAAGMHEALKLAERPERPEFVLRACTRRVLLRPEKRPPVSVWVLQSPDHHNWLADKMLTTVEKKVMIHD

Cl.Cn1cc(CN2CCN(c3cccnc3-c3ccc(F)cc3)CC2)cn1 [Example 74, 1-[2-(4-Fluoro-phenyl)-pyridin-3-yl]-4-(1-methyl-1H-pyrazol-4-ylmethyl)-piperazine hydrochloride]
Kb ([1]; antagonist potency, cAMP, 5-HT7-expressing AV-12 cells): ~44 nM
antagonist character at the 5-HT7 receptor ([1]; cAMP formation): full antagonist
inhibition ([1]; cAMP formation, 5-HT7-expressing AV-12 cells): about 96%

CC1CCN(CC[C@H]2CCCN2S(=O)(=O)c2cccc(O)c2)CC1 [SB-269970]
cerebellar cGMP, stress ([2]; 3 mg/kg (ip, 30 min)/stress): 270%
cerebellar cGMP, stress ([2]; 10 mg/kg (ip, 30 min)/stress): 225%
cerebellar cGMP, stress ([2]; 30 mg/kg (ip, 30 min)/stress): 171* percent

Cc1ccc(-c2nccnc2N2CCN(Cc3cn(C)nc3C)CC2)cc1.O=C(O)/C=C/C(=O)O [Example 186, 4-(1,3-Dimethyl-1H-pyrazol-4-ylmethyl)-3′-(4-methylphenyl)-3,4,5,6-tetrahydro-2H-[1,2′]bipyrazine fumarate]
threshold force required to elicit a response (mechanical allodynia) [3]: active
cerebellar cGMP, stress ([2]; 3 mg/kg (ip, 30 min)/stress): 278%
cerebellar cGMP, stress ([2]; 10 mg/kg (ip, 30 min)/stress): 264%
cerebellar cGMP, stress ([2]; 30 mg/kg (ip, 30 min)/stress): 234%
cerebellar cGMP, stress ([2]; 60 mg/kg (ip, 30 min)/stress): 117* percent

Cc1c(CN2CCN(c3nccnc3-c3cccc(F)c3)CC2)cnn1C.Cl [Example 127, 4-(1,5-Dimethyl-1H-pyrazol-4-ylmethyl)-3′-(3-fluoro-phenyl)-3,4,5,6-tetrahydro-2H-[1,2′]bipyrazinyl hydrochloride]
ratio of extravasation in the dura, stimulated side over unstimulated side [4]: about 1.16

Cc1c(CN2CCN(c3nccnc3-c3ccc(F)cc3)CC2)cnn1-c1ccccc1.Cl [Example 19, 4-(5-methyl-1-phenyl-1H-pyrazol-4-ylmethyl)-3′-(4-fluorophenyl)-3,4,5,6-tetrahydro-2H-[1,2′]bipyrazine hydrochloride]
formalin-induced events, early and late phases [5]: active on both the early and late phases

Cc1nnc2n1-c1ccc(Cl)cc1C(c1ccccc1)=NC2 [Alprazolam, alprazolam]
cerebellar cGMP, stress ([2]; 1 mg/kg (ip, 30 min)/stress): 60* percent

CNC1=Nc2ccc(Cl)cc2C(c2ccccc2)=[N+]([O-])C1 [Chlordiazepoxide, chlordiazepoxide]
cerebellar cGMP, stress ([2]; 10 mg/kg (ip, 30 min)/stress): 129%
cerebellar cGMP, stress ([2]; 30 mg/kg (ip, 30 min)/stress): 106* percent
cerebellar cGMP, stress ([2]; 60 mg/kg (ip, 30 min)/stress): 71* percent

Source: US8202873B2, “2-[4-(pyrazol-4-ylalkyl)piperazin-1-yl]-3-phenyl pyrazines as 5-HT7 receptor antagonists” (Eli Lilly and Company, priority 2007, dated 2012)
